Experimental findings from patent US10981932B2, “Macrocyclic indole derivatives” (Bayer Aktiengesellschaft, priority 2016, dated 2021) are described below.

Data set [1] concerns SUDHL5. The data set can be described thus: Induction of caspase-3/7 activity (Caspase-Glo 3/7), SUDHL5. The following applies: caspase-3/7 induction, SUDHL5 cells, 3 h treatment, median. It counts as cell-based. The method in brief: (§1)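 DLBCL lines SUDHL5 and SUDHL10 treated with compounds for 3 h at 37 °C; caspase-3/7 activity read by Caspase-Glo 3/7 luminescence. Medium-only background subtracted; EC50 fitted with bottom fixed at 1 and top fixed at the reference compound's maximal induction.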

The test system of data set [2] is SUDHL5. The data set can be described thus: Induction of cytotoxicity (CellTiter-Glo, 5 h), SUDHL5. (In general: ATP-based viability assays read luminescence as a measure of living cells.)
The next data set relates to A2780. The data set can be described thus: Anti-proliferative effect (CellTiter-Glo, 72 h), A2780. It counts as cell-based. The following applies: A2780 cells, median, read-out: IC50 antiproliferation assay A2780 [M] (median). The procedure, abridged: (§2)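 Cells plated and incubated with compounds for 72 h at 37 °C, with a parallel day 0 reference plate for time-zero signal. Viability read by CellTiter-Glo luminescence after 10 min, measured identically on the day 0 and 72 h plates.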

Data set [3] relates to SUDHL10. The data set can be described thus: Induction of caspase-3/7 activity (Caspase-Glo 3/7), SUDHL10. The following applies: caspase-3/7 induction, SUDHL10 cells, 3 h treatment, median. It counts as cell-based. The procedure, abridged:
as §1

The test system of data set [4] is SUDHL10. The data set can be described thus: Induction of cytotoxicity (CellTiter-Glo, 5 h), SUDHL10.
Data set [5] concerns SUDHL10. The data set can be described thus: Anti-proliferative effect (CellTiter-Glo, 72 h), SUDHL10. Format: cell-based. As to conditions: SUDHL10 cells, antiproliferation, median, read-out: Antiproli SUDHL10 [M] (median). The procedure, abridged:
as §2

Data set [6] deals with SUDHL5. The data set can be described thus: Anti-proliferative effect (CellTiter-Glo, 72 h), SUDHL5. It counts as cell-based. The following applies: SUDHL5 cells, antiproliferation, median, read-out: Antiproli SUDHL5 [M] (median). The procedure, abridged: as §2
Another data set concerns the target MCL-1 (Homo sapiens, UniProt Q07820). The data set can be described thus: Protein-protein interaction assay MCL-1/Noxa BH3 peptide (MCL-1 assay), TR-FRET. The following applies: MBP-MCL-1 / Noxa BH3-derived peptide, median. It counts as binding. The procedure, abridged: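 IC50 came from a 4-parameter fit of the normalized 665/620 nm TR-FRET ratio (anti-MBP Eu-cryptate/streptavidin-XL665). Compounds (0.1 nM–20 μM, duplicates) were preincubated 10 min at 22 °C with 1 nM MBP-MCL-1 in pH 7 Tris/NaCl/KF buffer, then read after 1 h at 22 °C plus overnight at 4 °C.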
A general note: In TR-FRET formats the signal depends on donor and acceptor labels being close together.

[7] abbreviates: Homo sapiens, SU-DHL-5, 5 h, read-out: Cytotox SUDHL5 [M] (median), SUDHL5 cells, cytotoxicity induction, CellTiter-Glo, 5 h, median.
Where [8] appears, read: Homo sapiens, SU-DHL10, 5 h, read-out: Cytotox SUDHL10 [M] (median), SUDHL10 cells, cytotoxicity induction, CellTiter-Glo, 5 h, median.
The mark [9] stands for this setting: Homo sapiens, SU-DHL10, 72 h, 72 h.
The mark [10] stands for this setting: Homo sapiens, SU-DHL-5, 72 h, 72 h.
The mark [11] stands for this setting: read-out: Cytotox SUDHL5 [M] (median), SUDHL5 cells, cytotoxicity induction, CellTiter-Glo, 5 h incubation, median.
The mark [12] stands for this setting: Homo sapiens, SU-DHL10, 5 h, read-out: Cytotox SUDHL10 [M] (median), SUDHL10 cells, cytotoxicity induction, CellTiter-Glo, 5 h incubation, median.
Where [13] appears, read: Homo sapiens, SU-DHL10, 72 h, 72 h incubation.
The mark [14] stands for this setting: read-out: Cytotox SUDHL10 [M] (median), SUDHL10 cells, cytotoxicity induction, CellTiter-Glo, 5 h incubation, median.

Structures can show the parent of a compound that is named as a salt. Where two headings read alike, the source gives them in different places. A value given as a limit tells only on which side of the number the result lay.

MCL-1, sequence (Q07820 whole entry): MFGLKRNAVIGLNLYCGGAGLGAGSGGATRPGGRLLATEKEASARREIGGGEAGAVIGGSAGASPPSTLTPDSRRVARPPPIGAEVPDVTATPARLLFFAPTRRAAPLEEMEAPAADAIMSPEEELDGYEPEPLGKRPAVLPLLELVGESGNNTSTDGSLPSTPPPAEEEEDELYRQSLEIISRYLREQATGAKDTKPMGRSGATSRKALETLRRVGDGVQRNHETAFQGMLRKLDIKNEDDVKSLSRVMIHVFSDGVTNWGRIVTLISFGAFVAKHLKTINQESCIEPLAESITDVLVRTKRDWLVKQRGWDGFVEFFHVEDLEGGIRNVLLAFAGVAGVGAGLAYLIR

The term EC50 denotes the concentration giving half of the maximal effect. Low readings indicate an effect from little substance, high ones a need for much substance. For the molecule `CN1CCCn2c(C(=O)O)c(CCCOc3cccc4ccccc34)c3cccc(c32)-c2c(nn3c2OCCC3)C1` (racemic) [Example 360, (rac)-7-methyl-1-[3-(naphthalen-1-yloxy)propyl]-5,6,7,8,12,13-hexahydro-4H,11H-[1,3]oxazino[3″,2″:1′,5′]pyrazolo[3′,4′:7,8][1,5]diazecino[9,10,1-hi]indole-2-carboxylic Acid], the concentration giving a half-maximal response (EC50) in the data set on SUDHL5 [1] (Homo sapiens, SU-DHL-5, 3 h) was 32.6 µM; in the data set with SUDHL10 [3] (Homo sapiens, SU-DHL10, 3 h), more than 33 µM. Also, the IC50 was more than 3.3e-05 M in the data set on SUDHL5 [2] (setting [7]); more than 3.3e-05 M with A2780 (Homo sapiens, A2780, 72 h); more than 3.3e-05 M in the data set on SUDHL10 [4] (setting [8]); 1.44e-05 M in the data set with SUDHL10 [5] (setting [9]); 2.12e-05 M in the data set with SUDHL5 [6] (setting [10]); 0.0198 µM against MCL-1.

`CN1CCCn2c(C(=O)O)c(CCCOc3cccc4ccccc34)c3cccc(c32)-c2c(nn3c2CCCC3)C1` (racemic) [Example 361, (rac)-7-methyl-1-[3-(naphthalen-1-yloxy)propyl]-5,6,7,8,11,12,13,14-octahydro-4H-pyrido[1″,2″:1′,5′]pyrazolo[3′,4′:7,8][1,5]diazecino[9,10,1-hi]indole-2-carboxylic Acid]: the EC50 is 10.1 µM with SUDHL5 [1] (Homo sapiens, SU-DHL-5, 3 h) and more than 33 µM in the data set with SUDHL10 [3] (Homo sapiens, SU-DHL10, 3 h). The IC50 is 1.09e-05 M in the data set on SUDHL5 [2] (setting [7]); more than 3.3e-05 M in the data set on A2780 (Homo sapiens, A2780, 72 h); 1.84e-05 M with SUDHL10 [4] (setting [8]); 7.7e-06 M in the data set with SUDHL10 [5] (setting [9]); 3.66e-06 M in the data set on SUDHL5 [6] (setting [10]); 0.0248 µM on MCL-1.

For the molecule `Cc1ccc2c(C(C)CCOc3cccc4c3CCCC4)c(C(=O)O)n3c2c1-c1c(nn(C)c1C)COCCCC3` (racemic) [Example 363, 11,12,13-trimethyl-1-(4-((5,6,7,8-tetrahydronaphthalen-1-yl)oxy)butan-2-yl)-4,5,6,7,9,11-hexahydropyrazolo[4′,3′:9,10][1,6]oxaazacycloundecino[8,7,6-hi]indole-2-carboxylic Acid (Mixture of Stereoisomers)], the EC50 in the data set with SUDHL5 [1] (Homo sapiens, SU-DHL-5, 3 h) came out at 20.2 µM; in the data set with SUDHL10 [3] (Homo sapiens, SU-DHL10, 3 h), 23.1 µM. Further, the IC50 was 1.68e-05 M in the data set with SUDHL5 [2] (setting [7]); 1.54e-05 M in the data set on A2780 (Homo sapiens, A2780, 72 h); 2.97e-05 M in the data set on SUDHL10 [4] (setting [8]); 1.13e-05 M in the data set with SUDHL10 [5] (setting [9]); 1.14e-05 M in the data set with SUDHL5 [6] (setting [10]); 0.042 µM at MCL-1.

For the molecule `Cn1nc(COc2cncnc2)c2c1COCCCCn1c(C(=O)O)c(CCCOc3cccc4ccccc34)c3cccc-2c31` (single isomer, unassigned) [Example 211, 1-methyl-7-[3-(naphthalen-1-yloxy)propyl]-3-[(pyrimidin-5-yloxy)methyl]-1,10,11,12,13,15-hexahydropyrazolo[4′,3′:9,10][1,6]oxazacycloundecino[8,7,6-hi]indole-8-carboxylic Acid], the EC50 was more than 33 µM with SUDHL5 [1] and more than 33 µM with SUDHL10 [3] (Homo sapiens, SU-DHL10, 3 h). The IC50 is more than 3.3e-05 M in the data set on SUDHL5 [2] (setting [11]); more than 3.3e-05 M in the data set with A2780 (Homo sapiens, A2780, 72 h); more than 3.3e-05 M with SUDHL10 [4] (setting [12]); 4.44e-06 M in the data set with SUDHL10 [5] (setting [13]); 2.44e-06 M in the data set on SUDHL5 [6] (72 h incubation); 0.174 µM on MCL-1.

Take `Cn1ccnc1COCc1nn(C)c2c1-c1cccc3c(CCCOc4cccc5ccccc45)c(C(=O)O)n(c13)CCCCOC2` (single isomer, unassigned) [Example 232, (+)-1-methyl-3-{[(1-methyl-1H-imidazol-2-yl)methoxy]methyl}-7-[3-(naphthalen-1-yloxy)propyl]-1,10,11,12,13,15-hexahydropyrazolo[4′,3′:9,10][1,6]oxazacycloundecino[8,7,6-hi]indole-8-carboxylic Acid]: the EC50 in the data set with SUDHL5 [1] is 9.57 µM; with SUDHL10 [3], 13.1 µM. Moreover, the IC50 in the data set on SUDHL5 [2] (setting [11]) is 7.5e-06 M; in the data set on A2780 (Homo sapiens, A2780, 72 h), more than 3.3e-05 M; in the data set with SUDHL10 [4] (setting [14]), 1.32e-05 M; in the data set on SUDHL10 [5] (setting [13]) it was 1.97e-05 M; in the data set with SUDHL5 [6] (72 h incubation) it was 2.94e-06 M; on MCL-1, 0.00974 µM.

With `Cn1ccnc1COCc1nn(C)c2c1-c1cccc3c(CCCOc4cccc5ccccc45)c(C(=O)O)n(c13)CCCCOC2` (single isomer, unassigned) [Example 233, (−)-1-methyl-3-{[(1-methyl-1H-imidazol-2-yl)methoxy]methyl}-7-[3-(naphthalen-1-yloxy)propyl]-1,10,11,12,13,15-hexahydropyrazolo[4′,3′:9,10][1,6]oxazacycloundecino[8,7,6-hi]indole-8-carboxylic Acid], the EC50 in the data set with SUDHL5 [1] was 25.3 µM; in the data set on SUDHL10 [3], more than 33 µM. Also, the IC50 in the data set with SUDHL5 [2] (setting [11]) is 2.15e-05 M; with A2780, more than 3.3e-05 M; with SUDHL10 [4] (setting [14]), more than 3.3e-05 M; in the data set on SUDHL10 [5] (72 h incubation), 1.85e-05 M; in the data set on SUDHL5 [6] (72 h incubation) it was 9.23e-06 M; against MCL-1, 0.242 µM.

For the molecule `O=C(O)c1c(CCCOc2cccc3ccccc23)c2cccc3c2n1CCCCOCc1nn2c(c1-3)OCCC2` (single isomer, unassigned) [Example 248, 1-[3-(naphthalen-1-yloxy)propyl]-4,5,6,7,13,14-hexahydro-9H,12H-[1,3]oxazino[3″,2″:1′,5]pyrazolo[4′,3′:9,10][1,6]oxazacycloundecino[8,7,6-hi]indole-2-carboxylic Acid], the EC50 came out at 3.17 µM with SUDHL5 [1] and 12.9 µM in the data set with SUDHL10 [3]. Besides, the IC50 in the data set on SUDHL5 [2] (setting [11]) is 3.38e-06 M; in the data set with A2780, more than 3.3e-05 M; in the data set with A2780 (Homo sapiens, A2780, 72 h), 2.34e-05 M; in the data set on SUDHL10 [4] (setting [14]), 1.29e-05 M; in the data set on SUDHL10 [5] (setting [13]), 8.78e-06 M; in the data set with SUDHL5 [6] (72 h incubation), 6.51e-06 M. Moreover, on MCL-1, the IC50 amounted to 0.00474 µM.

With `O=C(O)c1c(CCCOc2cccc3ccccc23)c2cccc3c2n1CCCCOCc1nn2c(c1-3)OCCC2` (single isomer, unassigned) [Example 249, 1-[3-(naphthalen-1-yloxy)propyl]-4,5,6,7,13,14-hexahydro-9H,12H-[1,3]oxazino[3″,2″:1′,5′]pyrazolo[4′,3′:9,10][1,6]oxazacycloundecino[8,7,6-hi]indole-2-carboxylic Acid], the EC50 in the data set on SUDHL5 [1] and in the data set with SUDHL10 [3] was more than 33 µM each time. The IC50 with SUDHL5 [2] (setting [11]) is more than 3.3e-05 M; in the data set with A2780, 1.82e-05 M; in the data set on SUDHL10 [4] (setting [14]) it was more than 3.3e-05 M; in the data set with SUDHL10 [5] (72 h incubation), 7.58e-06 M; in the data set on SUDHL5 [6] (72 h incubation), 1.79e-05 M; on MCL-1, 0.0427 µM.

Take `O=C(O)c1c(CCCOc2cccc3ccccc23)c2cccc3c2n1CCCCOCc1nn2c(c1-3)COCC2` (single isomer, unassigned) [Example 251, 1-[3-(naphthalen-1-yloxy)propyl]-4,5,6,7,12,13-hexahydro-9H,15H-[1,4]oxazino[4″,3″:1′,5]pyrazolo[4′,3′:9,10][1,6]oxazacycloundecino[8,7,6-hi]indole-2-carboxylic acid-N-ethylethanamine Salt]: the EC50 with SUDHL5 [1] was more than 33 µM; in the data set with SUDHL10 [3] (Homo sapiens, SU-DHL10, 3 h), more than 33 µM. For the same molecule, the IC50 was more than 3.3e-05 M in the data set on SUDHL5 [2] (setting [11]); 2.84e-05 M in the data set with A2780 (Homo sapiens, A2780, 72 h); more than 3.3e-05 M in the data set with SUDHL10 [4] (setting [12]); 5.15e-06 M in the data set with SUDHL10 [5] (setting [13]); 6.23e-06 M with SUDHL5 [6] (Homo sapiens, SU-DHL-5, 72 h, 72 h incubation); 0.0484 µM at MCL-1.

On to `Cc1ccc2c(C(C)CCOc3cccc4ccccc34)c(C(=O)O)n3c2c1-c1c(C)nn(C)c1COCCCC3` (single isomer, unassigned) [Example 257, 1,3,4-trimethyl-7-[4-(naphthalen-1-yloxy)butan-2-yl]-1,10,11,12,13,15-hexahydropyrazolo[4′,3′:9,10][1,6]oxazacycloundecino[8,7,6-hi]indole-carboxylic Acid], for which the EC50 with SUDHL5 [1] and in the data set on SUDHL10 [3] was more than 33 µM each time. Moreover, the IC50 is more than 3.3e-05 M with SUDHL5 [2] (setting [11]); 1.9e-05 M in the data set with A2780 (Homo sapiens, A2780, 72 h); more than 3.3e-05 M with SUDHL10 [4] (setting [14]); 8.12e-06 M in the data set with SUDHL10 [5] (72 h incubation); 2e-05 M with SUDHL5 [6] (72 h incubation); 0.669 µM at MCL-1.
